# How the values were obtained:
# rats = conditions: systemic administration; cited from earlier work
# [1] = Visual Aqueous Solubility; type: physicochemical; conditions: thermodynamic from solid; 10 mg in 20 mL water
# Experimental: Form 1 (10 mg) was weighed into a glass vial and water was added in […] up to 3 mL then 1 mL portions thereafter. Solubility was assessed visually following a brief period of equilibration.
# Slurry Studies = type: physicochemical; conditions: 90/10 IPA/water, ambient temperature, 72 hrs
# Experimental: Form 1 (20 mg) was suspended in 90/10 IPA/water […] and shaken at ambient temperature for 72 hrs. The supernatant was evaporated rather than filtered due to the small volume and the resulting solid was examined by XRPD (FIG. 5).
# [2] = Stability study of Form 1 on storage; type: physicochemical; conditions: for Change in XRPD diffractogram on storage: after 1 month and 3 months
# Experimental: A sample of Form 1 was packed in double polyethylene bags and sealed in a HDPE bottle and stored at conditions of 25° C./60% RH. The sample was reanalysed after 1 month and 3 months by XRPD (using Method B). No change in the XRPD diffractogram was observed when the sample was stored at 25° C./60% RH after either 1 month or 3 months.
# Further tests on the sample of Form 1 stored at 25° C./60% RH were carried out as described in Table 1:
# A second sample of Form 1 was packed in double polyethylene bags and sealed in a HDPE bottle and stored under accelerated stability conditions of 40° C./75% RH. The sample was reanalysed after 1 month and 3 months by XRPD (using Method B). No change in the XRPD diffractogram was observed when the sample was stored at 40° C./75% RH after either 1 month or 3 months.
# Further tests on the sample of Form 1 stored at 40° C./75% RH were carried out as described in Table 2: […]
# [3] = Gravimetric Vapour Sorption (GVS) of Form 1; type: physicochemical
# Experimental: Gravimetric Vapour Sorption (GVS) data were collected using the following method: Approximately 10 mg of sample was placed into a wire-mesh vapour sorption balance pan and loaded into an ‘IgaSorp’ vapour sorption balance (Hiden Analytical Instruments). The sample was then dried by maintaining a 0% humidity environment until no further weight change was recorded. Subsequently, the sample was then subjected to a ramping profile from 0-90% RH at 10% RH increments, maintaining the sample at each step until equilibration had been attained (99% step completion). Upon reaching equilibration, the % RH within the apparatus was ramped to the next step and the equilibration procedure repeated. After completion of the sorption cycle, the sample was then dried using the same procedure. The weight change during the sorption/desorption cycles were then monitored, allowing for the hygroscopic nature of the sample to be determined.
# [4] = Gravimetric Vapour Sorption (GVS) of Form 5; type: physicochemical; conditions: 0% to 95% RH
# Experimental: Form 5 is hygroscopic with a mass uptake of 23%, as determined by Gravimetric Vapour Sorption (GVS) studies. The GVS studies were performed using a Surface Measurement Systems Ltd. DVS-1 No Video, equipment #2126. The sample was loaded into a balance pan, typically 20-30 mg, and equilibrated at 0% RH. After the material was dried, the RH was increased with 10% per step for 1 hour per increment, ending at 95% RH. After completion of the sorption cycle, the sample was dried using the same method. The software used for data collection was DVSWin v3.01 No Video. Data analysis was performed using DVS Standard Analysis Suite v6.3.0 (Standard).
# [5] = Polymorph stability of Form 5; type: physicochemical; conditions: also on XRPD measurement
# [6] = tested on: LPS-induced disseminated intravascular coagulation; conditions: cited from earlier work
# Human KLK1 = biological target: T1, Human KLK1 (Homo sapiens, UniProt P06870); test: Determination of the IC50 for KLK1; type: biochemical; conditions: 25° C., substrate H-DVal-Leu-Arg-AFC
# T1 construct: purchased Callbiochem
# T1 sequence (P06870 25-262): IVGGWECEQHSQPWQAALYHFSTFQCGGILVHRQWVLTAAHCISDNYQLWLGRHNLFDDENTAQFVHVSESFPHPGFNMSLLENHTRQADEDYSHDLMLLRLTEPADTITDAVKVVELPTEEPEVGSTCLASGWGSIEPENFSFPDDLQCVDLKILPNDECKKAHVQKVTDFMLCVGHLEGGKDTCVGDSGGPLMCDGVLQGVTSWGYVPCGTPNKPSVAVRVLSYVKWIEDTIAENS
# Experimental: (§1) KLK1 inhibitory activity in vitro was determined using standard published methods (see e.g. Johansen et al., Int. J. Tiss. Reac. 1986, 8, 185; Shori et al., Biochem. Pharmacol., 1992, 43, 1209; Stürzebecher et al., Biol. Chem. Hoppe-Seyler, 1992, 373, 1025). Human KLK1 (Callbiochem) was incubated at 25° C. with the fluorogenic substrate H-DVal-Leu-Arg-AFC and various concentrations of the test compound. Residual enzyme activity (initial rate of reaction) was determined by measuring the change in optical absorbance at 410 nm and the IC50 value for the test compound was determined.
# Human FXIa = biological target: T2, Human FXIa (Homo sapiens, UniProt P03951); test: Determination of the % Inhibition for FXIa; type: biochemical; conditions: 40 μM test compound, 25° C.
# T2 construct: purchased Enzyme Research Laboratories
# T2 sequence (P03951 388-625 limits assumed): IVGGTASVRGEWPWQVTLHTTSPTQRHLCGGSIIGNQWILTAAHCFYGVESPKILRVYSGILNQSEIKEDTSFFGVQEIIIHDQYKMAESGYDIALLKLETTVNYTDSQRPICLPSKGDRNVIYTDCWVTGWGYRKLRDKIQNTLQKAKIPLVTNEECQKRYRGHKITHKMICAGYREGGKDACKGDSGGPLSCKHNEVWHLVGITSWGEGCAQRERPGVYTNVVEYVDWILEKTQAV
# T2 sequence (P03951 19-387 partner limits assumed): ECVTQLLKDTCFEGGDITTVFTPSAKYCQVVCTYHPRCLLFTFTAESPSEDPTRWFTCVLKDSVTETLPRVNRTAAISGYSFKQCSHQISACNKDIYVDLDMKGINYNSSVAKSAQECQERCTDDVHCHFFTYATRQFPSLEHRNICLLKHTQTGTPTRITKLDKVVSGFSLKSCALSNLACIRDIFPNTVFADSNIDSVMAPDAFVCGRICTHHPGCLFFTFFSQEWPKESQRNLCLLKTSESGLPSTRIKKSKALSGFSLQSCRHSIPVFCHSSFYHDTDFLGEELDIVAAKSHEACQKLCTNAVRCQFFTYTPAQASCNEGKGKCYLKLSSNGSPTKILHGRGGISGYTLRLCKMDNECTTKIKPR
# Experimental: as §1, with “FXIa” for “KLK1”, “Sturzebecher” for “Stürzebecher”, “FXIa (Enzyme Research Laboratories)” for “KLK1 (Callbiochem)”, “Z-Gly-Pro-Arg-AFC” for “H-DVal-Leu-Arg-AFC”, “40 μM” for “various concentrations”, “nm.” for “nm and the IC50 value for the test compound was determined.”
# [7] = Pharmacokinetic study, single oral dose in rats; type: in vivo; conditions: male, Sprague-Dawley, plasma; rat, po 10.1 mg/kg, vehicle TPGS solution (20% aq. w/v)
# Experimental: A pharmacokinetic study of the compound of Formula A was performed to assess the pharmacokinetics following a single oral dose in male Sprague-Dawley rats. Two rats were given a single po dose of 5 mL/kg of a nominal 2 mg/mL (10 mg/kg) composition of test compound in vehicle. Following dosing, blood samples were collected over a period of […]. Sample times were 5, 15 and 30 minutes then 1, 2, 4, 6, 8 and 12 hrs. Following collection, blood samples were centrifuged and the plasma fraction analysed for concentration of test compound by LCMS.
# [8] = tested on: intrinsic pathway of coagulation; conditions: in vitro; cited from earlier work
# blood = blood contacted with the inhibitor; cited from earlier work
molecule,measurement,setting,value
N=C(N)c1ccc(CNC(=O)c2cnn(Cc3ccccc3)c2)cc1 [ASP-440],Hematoma expansion,rats,reduced
"COCc1nn(Cc2ccc(Cn3ccccc3=O)cc2)cc1C(=O)NCc1nccc(OC)c1F [Form 1, N-[(3-Fluoro-4-methoxypyridin-2-yl)methyl]-3-(methoxymethyl)-1-({4-[(2-oxopyridin-1-yl)methyl]phenyl}methyl)pyrazole-4-carboxamide]",solubility,[1],< 500 µg/mL
same,XRPD after slurry compared with FIG. 1a,Slurry Studies,tendency to form hydrate(s)
same,Appearance,"[2]; 25° C./60% RH, 1 month",Off-white
same,Assay by HPLC (on an anhydrous and solvent free basis),"[2]; 25° C./60% RH, 1 month",99.5 % w/w
same,DSC Tonset,"[2]; 25° C./60% RH, 1 month",151.1 °C
same,DSC Tpeak,"[2]; 25° C./60% RH, 1 month",152.4 °C
same,HPLC assay (on an as is basis),"[2]; 25° C./60% RH, 1 month",99.4 % w/w
same,Purity by HPLC,"[2]; 25° C./60% RH, 1 month",99.62 area %
same,Solid form of compound A by XRPD,"[2]; 25° C./60% RH, 1 month",Conforms
same,Total impurities,"[2]; 25° C./60% RH, 1 month",0.38 area %
same,Water by Karl Fischer analysis,"[2]; 25° C./60% RH, 1 month",<0.1 % w/w
same,Appearance,"[2]; 25° C./60% RH, 3 months",Off-white
same,Assay by HPLC (on an anhydrous and solvent free basis),"[2]; 25° C./60% RH, 3 months",99.6 % w/w
same,DSC Tonset,"[2]; 25° C./60% RH, 3 months",150.8 °C
same,DSC Tpeak,"[2]; 25° C./60% RH, 3 months",152.2 °C
same,HPLC assay (on an as is basis),"[2]; 25° C./60% RH, 3 months",99.5 % w/w
same,Purity by HPLC,"[2]; 25° C./60% RH, 3 months",99.70 area %
same,Solid form of compound A by XRPD,"[2]; 25° C./60% RH, 3 months",Conforms
same,Total impurities,"[2]; 25° C./60% RH, 3 months",0.30 area %
same,Water by Karl Fischer analysis,"[2]; 25° C./60% RH, 3 months",<0.1 % w/w
same,Appearance,"[2]; 25° C./60% RH, Initial",Off-white
same,Assay by HPLC (on an anhydrous and solvent free basis),"[2]; 25° C./60% RH, Initial",101.0 % w/w
same,DSC Tonset,"[2]; 25° C./60% RH, Initial",151.3 °C
same,DSC Tpeak,"[2]; 25° C./60% RH, Initial",152.9 °C
same,HPLC assay (on an as is basis),"[2]; 25° C./60% RH, Initial",100.9 % w/w
same,Purity by HPLC,"[2]; 25° C./60% RH, Initial",99.70 area %
same,Solid form of compound A by XRPD,"[2]; 25° C./60% RH, Initial",Conforms
same,Total impurities,"[2]; 25° C./60% RH, Initial",0.30 area %
same,Water by Karl Fischer analysis,"[2]; 25° C./60% RH, Initial",<0.1 % w/w
same,Change in XRPD diffractogram on storage,[2]; 25° C./60% RH,no change
same,Appearance,"[2]; 40° C./75% RH, 1 month",Off-white
same,Assay by HPLC (on an anhydrous and solvent free basis),"[2]; 40° C./75% RH, 1 month",99.5 % w/w
same,DSC Tonset,"[2]; 40° C./75% RH, 1 month",151.1 °C
same,DSC Tpeak,"[2]; 40° C./75% RH, 1 month",152.3 °C
same,HPLC assay (on an as is basis),"[2]; 40° C./75% RH, 1 month",99.4 % w/w
same,Purity by HPLC,"[2]; 40° C./75% RH, 1 month",99.57 area %
same,Solid form of compound A by XRPD,"[2]; 40° C./75% RH, 1 month",Conforms to
same,Total impurities,"[2]; 40° C./75% RH, 1 month",0.43 area %
same,Water by Karl Fischer analysis,"[2]; 40° C./75% RH, 1 month",<0.1 % w/w
same,Appearance,"[2]; 40° C./75% RH, 3 months",Off-white
same,Assay by HPLC (on an anhydrous and solvent free basis),"[2]; 40° C./75% RH, 3 months",100.0 % w/w
same,DSC Tonset,"[2]; 40° C./75% RH, 3 months",150.6 °C
same,DSC Tpeak,"[2]; 40° C./75% RH, 3 months",152.5 °C
same,HPLC assay (on an as is basis),"[2]; 40° C./75% RH, 3 months",99.9 % w/w
same,Purity by HPLC,"[2]; 40° C./75% RH, 3 months",99.71 area %
same,Solid form of compound A by XRPD,"[2]; 40° C./75% RH, 3 months",Conforms to
same,Total impurities,"[2]; 40° C./75% RH, 3 months",0.29 area %
same,Water by Karl Fischer analysis,"[2]; 40° C./75% RH, 3 months",0.1 % w/w
same,Appearance,"[2]; 40° C./75% RH, Initial",Off-white
same,Assay by HPLC (on an anhydrous and solvent free basis),"[2]; 40° C./75% RH, Initial",101.0 % w/w
same,DSC Tonset,"[2]; 40° C./75% RH, Initial",151.3 °C
same,DSC Tpeak,"[2]; 40° C./75% RH, Initial",152.9 °C
same,HPLC assay (on an as is basis),"[2]; 40° C./75% RH, Initial",100.9 % w/w
same,Purity by HPLC,"[2]; 40° C./75% RH, Initial",99.70 area %
same,Solid form of compound A by XRPD,"[2]; 40° C./75% RH, Initial",Conforms to
same,Total impurities,"[2]; 40° C./75% RH, Initial",0.30 area %
same,Water by Karl Fischer analysis,"[2]; 40° C./75% RH, Initial",<0.1 % w/w
same,Change in XRPD diffractogram on storage,[2]; 40° C./75% RH,no change
same,%-Wt(dry basis),"[3]; adsorption, 0.0335 %-RH",0.04722%
same,%-Wt(dry basis),"[3]; adsorption, 9.9791 %-RH",0.23%
same,%-Wt(dry basis),"[3]; adsorption, 20.0169 %-RH",0.3541%
same,%-Wt(dry basis),"[3]; adsorption, 30.0091 %-RH",0.7126%
same,%-Wt(dry basis),"[3]; adsorption, 39.9998 %-RH",0.825%
same,%-Wt(dry basis),"[3]; adsorption, 49.991 %-RH",1.207%
same,%-Wt(dry basis),"[3]; adsorption, 59.9808 %-RH",1.699%
same,%-Wt(dry basis),"[3]; adsorption, 70.0195 %-RH",1.912%
same,%-Wt(dry basis),"[3]; adsorption, 80.0136 %-RH",2.186%
same,%-Wt(dry basis),"[3]; adsorption, 90.0039 %-RH",3.226%
same,%-Wt(dry basis),"[3]; desorption, 0.0335 %-RH",0.000368%
same,%-Wt(dry basis),"[3]; desorption, 4.9801 %-RH",0.1269%
same,%-Wt(dry basis),"[3]; desorption, 15.0203 %-RH",0.5017%
same,%-Wt(dry basis),"[3]; desorption, 25.0135 %-RH",0.7008%
same,%-Wt(dry basis),"[3]; desorption, 35.0052 %-RH",1.017%
same,%-Wt(dry basis),"[3]; desorption, 44.9954 %-RH",1.525%
same,%-Wt(dry basis),"[3]; desorption, 54.9837 %-RH",1.685%
same,%-Wt(dry basis),"[3]; desorption, 64.9759 %-RH",1.865%
same,%-Wt(dry basis),"[3]; desorption, 75.0151 %-RH",2.116%
same,%-Wt(dry basis),"[3]; desorption, 85.0063 %-RH",2.547%
same,Hygroscopicity (GVS),[3]; up to 70% relative humidity,absence of significant hygroscopicity
"COCc1nn(Cc2ccc(Cn3ccccc3=O)cc2)cc1C(=O)NCc1nccc(OC)c1F [Form 5, N-[(3-Fluoro-4-methoxypyridin-2-yl)methyl]-3-(methoxymethyl)-1-({4-[(2-oxopyridin-1-yl)methyl]phenyl}methyl)pyrazole-4-carboxamide]",GVS (mass uptake %),[4],23%
same,Polymorph conversion over time,[5],converts into polymorph Form 3
Cl.NCC1CCC(C(=O)N[C@@H](Cc2ccccc2)C(=O)Nc2ccc(CC(=O)O)cc2)CC1 (some centres unmarked) [PKSI-527],Decrease in platelet count and fibrinogen level and increase in FDP level,[6],significantly suppressed
"COCc1nn(Cc2ccc(Cn3ccccc3=O)cc2)cc1C(=O)NCc1nccc(OC)c1F [compound of Formula A, N-[(3-fluoro-4-methoxypyridin-2-yl)methyl]-3-(methoxymethyl)-1-({4-[(2-oxopyridin-1-yl)methyl]phenyl}methyl)pyrazole-4-carboxamide]",IC50,Human KLK1,> 40 µM
same,inhibition at 40 µM,Human FXIa,0%
same,Cmax,[7],1940 ng/mL
same,Tmax,[7],1.17 h
Ecallantide,Contact activated induced coagulation,[8],delay
same,Activated clotting time (ACT),blood,increase
